# From article PMC4430595 (European Journal of Clinical Pharmacology, 2015)
# Where “and” joins values, the source holds several entries; their conditions need not be identical. Identical values can stand only once. Like-named read-outs stand apart in the source and are kept apart here.
# Experiments:
# [1] = Study B: plasma pharmacokinetics after single-dose i.v. telavancin 10 mg/kg in subjects with varying renal function; conditions: for half-life / AUC(0-inf) / Cmax / clearance: both, human, in vivo, iv; for half-life / AUC(0-inf) / Cmax / clearance / increase in systemic exposure (AUC0–∞) compared with healthy subjects: 10 mg/kg; for AUC(0-inf): AUC0–∞; for Cmax: C max (maximum plasma concentration); for clearance: CL (clearance)
# Experimental: Plasma pharmacokinetic parameters were calculated as previously described.
# plasma proteins = assay: Plasma protein binding by equilibrium dialysis (study A pre-infusion plasma); assay type: in vitro ADME, human; conditions: in vitro equilibrium dialysis; for Protein binding (%): pre-infusion plasma, telavancin 50 μg/ml spiked with 1 μg/ml [14C]telavancin, mean ± SD
# Experimental: The percent of protein binding was calculated as follows: %bound=donor−receptor÷donor×100%,and%unbound=receptor÷donor×100%, where donor = plasma side concentration and receptor = buffer side concentration.
# [2] = study A, ESRD
# Experimental: (§1) In subjects with end-stage renal disease (ESRD), haemodialysis was initiated 2–4 h after study drug administration (study A only). Haemodialysis sessions were 4 h in duration, and when possible, a similar type of dialyzer at a similar blood flow rate was used across haemodialysis subjects.
# For subjects with ESRD (study A), a sample from the inflow to the dialyzer on the arterial side was collected before dialysis and at 1, 2, 3 and 4 h after the start of dialysis; dialysate fluid samples (10 ml) were collected before and at 30-min intervals during dialysis. Plasma samples were also collected at 0, 60, 120, 180 and 240 min following the start of dialysis.
# (§2) The method was linear over the range 0.25–100 μg/ml and the lower limit of quantification (LLQ) was 0.25 μg/ml. Dialysate samples from study A were analysed at a separate central laboratory (Covance Laboratories, Madison, WI, USA) using a similar validated LC–MS method. […] Study samples outside the calibration range were diluted and re-assayed. Dilution QC samples were included in batches where samples were diluted prior to analysis.
# Dialyzers used included the PSN 210 and the 2K 2.5 Dialysate (both Gambro). The dialysate flow rate was 800 mL/min, and blood flow rates in patients ranged from 300 to 500 mL/min.
# [3] = not given; remark: listed apart in the source
# [4] = cited from earlier work
# clinical = conditions: both, human, in vivo, iv, 7.5 mg/kg
# Excerpt: (§3) Subjects included men and non-pregnant women and, in study A or B, respectively, were ≥18 years or 20–79 years of age with a body mass index of 18–36 or 18.5–34 kg/m^2. Subjects were either healthy or had mild, moderate or severe renal impairment.
# (§4) Subjects were assigned to the renal impairment strata based on assessment during pre-study screening. For study A, strata assignment was based on CLcr calculated using the Cockcroft-Gault (C–G) equation [12] […] For study B, assignment was based on the estimated glomerular filtration rate (eGFR) using the Modification of Diet in Renal Disease formula [13] […] Summary statistics for Study B were also prepared using the C–G equation [12] with and without normalization to body surface area. Creatinine assays were performed at each clinical site using UV absorbance assays at 512 nm to detect the yellow–red complex formed from the reaction of creatinine and picric acid under alkaline conditions.
# as §1
# (§5) Blood samples (5–6 ml) were collected in sodium heparin glass tubes and stored chilled until the plasma was harvested by centrifugation and stored at approximately –70 °C or below until transferred frozen to a central laboratory for analysis. For subjects with varying degrees of renal impairment, samples were collected in study A pre-infusion, at 1, 2, 4, 6, 8, 12, 24, 36 and 48 h after the start of infusion for all groups and also at 72 and 96 h post-infusion for subjects with severe renal impairment or ESRD. In study B, samples were collected pre-infusion and at 0.5, 1, 1.5, 2, 3, 4, 6, 8, 10, 12, 16, 24, 36, 48, 60, 72, 84 and 96 h post-dose.
# as §2
# (§6) The CL reported for ESRD is the CL for the subjects (i.e., includes residual clearance and any dialysis clearance).
# [5] = Study B: urinary excretion and renal clearance; conditions: mean ± SD; for CLR (renal clearance): CLR = Ae ÷ AUC; for dose excreted: human, in vivo, iv, 10 mg/kg; for Ae0–∞ (amount excreted in the urine extrapolated to infinity): normalized to a telavancin dose of 10 mg/kg
# Experimental: Aliquots were collected and stored at −70 °C or lower.
# The inter- and intra-assay precision and accuracy of quality controls and standards during the validation was within 7.6 % in plasma and 10.2 % in urine.
# Plasma pharmacokinetic parameters were calculated as previously described [7]. The CL reported for ESRD is the CL for the subjects (i.e., includes residual clearance and any dialysis clearance).
# Dialyzers used included the PSN 210 and the 2K 2.5 Dialysate (both Gambro). The dialysate flow rate was 800 mL/min, and blood flow rates in patients ranged from 300 to 500 mL/min. […] In study B, the percentage of the dose excreted in urine was calculated as Ae0–t% = Ae0–t/dose × 100 % and Ae0–∞% = Ae0–∞/dose × 100 %.
# [6] = Study A: plasma pharmacokinetics after single-dose i.v. telavancin 7.5 mg/kg in subjects with varying renal function
# Excerpt: as §3, §4, §1, §5, §2, §6
# [7] = study B, single 1-h i.v. infusion telavancin 10 mg/kg, plasma, mild RI (eGFR 60 to 89 mL/min/1.73 m^2), n = 13, mean ± SD
# [8] = study B, single 1-h i.v. infusion telavancin 10 mg/kg, plasma, normal renal function (eGFR ≥90 mL/min/1.73 m^2), n = 14, mean ± SD
# [9] = study B, single 1-h i.v. infusion telavancin 10 mg/kg, plasma, severe RI (eGFR 15 to 29 mL/min/1.73 m^2), n = 8, mean ± SD
# [10] = subjects with severe renal impairment or ESRD, stated for both studies
structure (smiles),measurement,setting,value
CCCCCCCCCCNCCN[C@@]1(C)C[C@H](O[C@H]2[C@H](Oc3c4cc5cc3Oc3ccc(cc3Cl)[C@@H](O)[C@@H](NC(=O)[C@@H](CC(C)C)NC)C(=O)N[C@@H](CC(N)=O)C(=O)N[C@H]5C(=O)N[C@H]3C(=O)N[C@H](C(=O)N[C@H](C(=O)O)c5cc(O)c(CNCP(=O)(O)O)c(O)c5-c5cc3ccc5O)[C@H](O)c3ccc(c(Cl)c3)O4)O[C@H](CO)[C@@H](O)[C@@H]2O)O[C@@H](C)[C@H]1O [telavancin],half-life,[1],6.5 h
same,AUC(0-inf),[1]; [7],606 µg·h/mL
same,AUC(0-inf),"[1]; study B, single 1-h i.v. infusion telavancin 10 mg/kg, plasma, moderate RI (eGFR 30 to 59 mL/min/1.73 m^2), n = 8, mean ± SD",936 µg·h/mL
same,AUC(0-inf),[1]; [8],539 µg·h/mL
same,AUC(0-inf),[1]; [9],1400 µg·h/mL
same,Cmax,"[1]; study B, single 1-h i.v. infusion telavancin 10 mg/kg, mild RI (eGFR 60 to 89 mL/min/1.73 m^2), n = 13, mean ± SD",74.2 µg/mL
same,Cmax,"[1]; study B, single 1-h i.v. infusion telavancin 10 mg/kg, normal renal function (eGFR ≥90 mL/min/1.73 m^2), n = 14, mean ± SD",76.7 µg/mL
same,Cmax,"[1]; study B, single 1-h i.v. infusion telavancin 10 mg/kg, severe RI (eGFR 15 to 29 mL/min/1.73 m^2), n = 8, mean ± SD",83.2 µg/mL
same,clearance,[1]; [7],0.253 mL/min/kg
same,clearance,[1]; [8],0.283 mL/min/kg
same,clearance,[1]; [9],0.108 mL/min/kg
same,half-life,"[1]; t ½ (terminal elimination half-life), study B, single 1-h i.v. infusion telavancin 10 mg/kg, plasma, mild RI (eGFR 60 to 89 mL/min/1.73 m^2), n = 13, mean ± SD",7.8 h
same,half-life,"[1]; t ½ (terminal elimination half-life), study B, single 1-h i.v. infusion telavancin 10 mg/kg, plasma, severe RI (eGFR 15 to 29 mL/min/1.73 m^2), n = 8, mean ± SD",11.8 h
same,increase in systemic exposure (AUC0–∞) compared with healthy subjects,"[1]; study B, mild renal impairment",12%
same,increase in systemic exposure (AUC0–∞) compared with healthy subjects,"[1]; study B, moderate renal impairment",74%
same,increase in systemic exposure (AUC0–∞) compared with healthy subjects,"[1]; study B, severe renal impairment",160%
same,C max (maximum plasma concentration),"[1]; study B, single 1-h i.v. infusion telavancin 10 mg/kg, moderate RI (eGFR 30 to 59 mL/min/1.73 m^2), n = 8, mean ± SD",78.0 ± 4.5 µg/mL
same,Protein binding (%),"plasma proteins; ESRD on dialysis, n = 6",87.6 ± 1.0/0%
same,Protein binding (%),"plasma proteins; mild RI (CLcr 51–80 mL/min), n = 6",87.5 ± 1.0%
same,Protein binding (%),"plasma proteins; moderate RI (CLcr 30–50 mL/min), n = 6",87.8 ± 1.1%
same,Protein binding (%),"plasma proteins; normal renal function (CLcr >80 mL/min), n = 6",86.5 ± 1.3%
same,Protein binding (%),"plasma proteins; severe RI (CLcr <30 mL/min), n = 4",86.7 ± 1.2%
same,average binding to plasma proteins,"plasma proteins; study A pre-dose plasma, all renal impairment groups",approximately 87%
same,dialysis clearance as share of clearance in normal subjects (total body CL),[2],approximately 25%
same,total administered dose removed by dialysis session,"[2]; 7.5 mg/kg, 4-h haemodialysis on the day of administration, dialysate flow 800 mL/min",approximately 6%
same,dialysis clearance,"[2]; CLHD = QD × (CTLV – DTLV) ÷ CTLV, dialysate flow 800 mL/min, estimated",4.5 mL/min
same,dialysis clearance,[2]; same value in ml/h,4.52 mL/min
same,subjects reporting treatment-emergent adverse events (TEAEs),"study A, ESRD, 2/6",33%
same,subjects reporting treatment-emergent adverse events (TEAEs),"study A, all subjects, 17/29",59%
same,subjects reporting treatment-emergent adverse events (TEAEs),"study A, mild renal impairment, 4/7",57%
same,subjects reporting treatment-emergent adverse events (TEAEs),"study A, moderate renal impairment, 3/6",50%
same,subjects reporting treatment-emergent adverse events (TEAEs),"study A, normal renal function, 5/6",83%
same,subjects reporting treatment-emergent adverse events (TEAEs),"study A, severe impairment, 3/4",75%
same,tolerability,"study A, single i.v. infusion 7.5 mg/kg, normal renal function and varying degrees of renal impairment",well tolerated
same,audiology assessments,"ten subjects with various degrees of renal impairment, study not given",no clinically significant abnormalities
same,serious adverse events,"[3]; stated after the study B findings, study not given",No serious adverse events were reported
same,subjects reporting treatment-emergent adverse events (TEAEs),"[3]; study B, all subjects, 7/43",16.3%
same,subjects reporting treatment-emergent adverse events (TEAEs),"[3]; study B, mild renal impairment, 1/13",7.7%
same,subjects reporting treatment-emergent adverse events (TEAEs),"[3]; study B, moderate renal impairment, 2/8",25%
same,subjects reporting treatment-emergent adverse events (TEAEs),"[3]; study B, normal renal function, 0/14",0%
same,subjects reporting treatment-emergent adverse events (TEAEs),"[3]; study B, severe impairment, 4/8",50%
same,tolerability,"[3]; study B, single i.v. infusion 10 mg/kg, normal renal function and varying degrees of renal impairment",well tolerated
same,subjects with ECG QT prolongation,"[3]; study B, three subjects of 43 (two severe, one moderate renal impairment), mild and transient",7.0%
same,subjects with increased blood lactate dehydrogenase,"[3]; study B, two subjects of 43, mild and transient",4.7%
same,excreted intact in urine,[4]; after a single i.v. administration of 10 mg/kg,82%
same,elimination half-life (t½),"[4]; healthy adult volunteers, 7.5–15 mg/kg/day i.v. infusion, averaging",~7 h
same,Cmax,clinical,70.6 ± 11.2 µg/mL
same,CLR (renal clearance),[5]; mild renal impairment,0.147 ± 0.055 mL/min/kg
same,CLR (renal clearance),[5]; moderate renal impairment,0.0783 ± 0.0267 mL/min/kg
same,CLR (renal clearance),[5]; normal renal function,0.17 ± 0.03 mL/min/kg and 0.175 ± 0.0317 mL/min/kg
same,CLR (renal clearance),[5]; severe renal impairment,0.03 ± 0.01 mL/min/kg and 0.0317 ± 0.012 mL/min/kg
same,dose excreted,"[5]; both, Ae0-t % (percentage of the dose excreted in urine), urine 0–96 h, mild renal impairment",58.2 ± 11.5%
same,dose excreted,"[5]; both, Ae0-t % (percentage of the dose excreted in urine), urine 0–96 h, moderate renal impairment",48.4 ± 8.7%
same,dose excreted,"[5]; both, Ae0-t % (percentage of the dose excreted in urine), urine 0–96 h, normal renal function",62.8 ± 9%
same,dose excreted,"[5]; both, Ae0–∞% (percentage of the dose excreted in urine, extrapolated to infinity), normal renal function",62.7 ± 9.1%
same,dose excreted,"[5]; Ae0–∞% (percentage of the dose excreted in urine, extrapolated to infinity), mild renal impairment",58.2 ± 11.6%
same,dose excreted,"[5]; Ae0–∞% (percentage of the dose excreted in urine, extrapolated to infinity), moderate renal impairment",48.4 ± 9.3%
same,dose excreted,"[5]; Ae0–∞% (percentage of the dose excreted in urine, extrapolated to infinity), severe renal impairment",28.2 ± 3.9%
same,Ae0–∞ (amount excreted in the urine extrapolated to infinity),[5]; mild renal impairment,396 ± 100 mg
same,Ae0–∞ (amount excreted in the urine extrapolated to infinity),[5]; moderate renal impairment,375 ± 96 mg
same,Ae0–∞ (amount excreted in the urine extrapolated to infinity),[5]; normal renal function,435 ± 91 mg
same,Ae0–∞ (amount excreted in the urine extrapolated to infinity),[5]; severe renal impairment,208 ± 60 mg
same,Ae0-t % (percentage of the dose excreted in urine),"[5]; urine 0–96 h, severe renal impairment",28.0 ± 4.3%
same,clearance,"[6]; both, human, in vivo, iv, 7.5 mg/kg, CL (clearance), study A, single 1-h i.v. infusion telavancin 7.5 mg/kg, plasma, ESRD, n = 6, includes residual clearance and any dialysis clearance, mean ± SD",0.136 mL/min/kg
same,increase in systemic exposure (AUC0–∞) compared with healthy subjects,"[6]; study A, 7.5 mg/kg, ESRD group",79%
same,increase in systemic exposure (AUC0–∞) compared with healthy subjects,"[6]; study A, 7.5 mg/kg, mild renal impairment",13%
same,increase in systemic exposure (AUC0–∞) compared with healthy subjects,"[6]; study A, 7.5 mg/kg, moderate renal impairment",29%
same,increase in systemic exposure (AUC0–∞) compared with healthy subjects,"[6]; study A, 7.5 mg/kg, severe renal impairment",118%
same,change of t1/2,[6]; [10],almost doubled
same,reduction of mean plasma CL,[6]; [10],more than 50%
